Columns and labels:
Type in all cases: in vivo
[1] = system: Alopecurus myosuroides (ALOMY); experiment: Pre-emergence biological efficacy, glasshouse pot test; conditions: 312 h, pre-emergence, 1,000 g/ha, evaluated after 13 days (100=total damage; 0=no damage), read-out: Percentage damage ALOMY
Protocol: (§1) Seeds of Alopecurus myosuroides (ALOMY), Setaria faberi (SETFA), Echinochloa crus-galli (ECHCG), Solanum nigrum (SOLNI), Amaranthus retoflexus (AMARE) and Ipomea hederaceae (IPOHE) were sown in standard soil in pots. After cultivation for one day under controlled conditions in a glasshouse (at 24/16° C., day/night; 14 hours light; 65% humidity), the plants were sprayed with an aqueous spray solution derived from the formulation of the technical active ingredient in acetone/water (50:50) solution containing 0.5% Tween 20 (polyoxyethelyene sorbitan monolaurate, CAS RN 9005-64-5) to give a final dose of 1000 or 250 g/ha of test compound.
(§2) The test plants were then grown under controlled conditions in the glasshouse (at 24/16° C., day/night; 14 hours light; 65% humidity) and watered twice daily. After 13 days the test was evaluated (100=total damage to plant; 0=no damage to plant).

[2] = system: Amaranthus retoflexus (AMARE); experiment: as above; conditions: Amaranthus retroflexus, 312 h; pre-emergence, 1,000 g/ha, evaluated after 13 days (100=total damage; 0=no damage); read-out: Percentage damage AMARE
Protocol: as §1, §2

[3] = system: Echinochloa crus-galli (ECHCG); experiment: as above; conditions: 312 h, pre-emergence, 1,000 g/ha, evaluated after 13 days (100=total damage; 0=no damage), read-out: Percentage damage ECHCG
Protocol: as §1, §2

[4] = system: Ipomea hederaceae (IPOHE); experiment: as above; conditions: Ipomoea hederacea, 312 h; pre-emergence, 1,000 g/ha, evaluated after 13 days (100=total damage; 0=no damage); read-out: Percentage damage IPOHE
Protocol: as §1, §2

Setaria faberi (SETFA) [5] = experiment: as above; conditions: 312 h, pre-emergence, 1,000 g/ha, evaluated after 13 days (100=total damage; 0=no damage), read-out: Percentage damage SETFA
Protocol: as §1, §2

Solanum nigrum (SOLNI) [6] = experiment: as above; conditions: 312 h, pre-emergence, 1,000 g/ha, evaluated after 13 days (100=total damage; 0=no damage), read-out: Percentage damage SOLNI
Protocol: as §1, §2

[7] = system: Alopecurus myosuroides (ALOMY); experiment: Post-emergence biological efficacy, glasshouse pot test; conditions: 312 h, post-emergence, 1,000 g/ha, evaluated after 13 days (100=total damage; 0=no damage), read-out: Percentage damage caused to weed species, ALOMY
Protocol: as §1, with “8 days” for “one day”
(§3) The test plants were then grown on under controlled conditions in a glasshouse (at 24/16° C., day/night; 14 hours light; 65% humidity) and watered twice daily. After 13 days the test was evaluated (100=total damage to plant; 0=no damage to plant).

[8] = system: Amaranthus retoflexus (AMARE); experiment: as above; conditions: Amaranthus retroflexus, 312 h; post-emergence, 1,000 g/ha, evaluated after 13 days (100=total damage; 0=no damage); read-out: Percentage damage caused to weed species, AMARE
Protocol: as §1, with “8 days” for “one day”
as §3

[9] = system: Echinochloa crus-galli (ECHCG); experiment: as above; conditions: 312 h, post-emergence, 1,000 g/ha, evaluated after 13 days (100=total damage; 0=no damage), read-out: Percentage damage caused to weed species, ECHCG
Protocol: as §1, with “8 days” for “one day”
as §3

[10] = system: Ipomea hederaceae (IPOHE); experiment: as above; conditions: Ipomoea hederacea, 312 h; post-emergence, 1,000 g/ha, evaluated after 13 days (100=total damage; 0=no damage); read-out: Percentage damage caused to weed species, IPOHE
Protocol: as §1, with “8 days” for “one day”
as §3

Setaria faberi (SETFA) [11] = experiment: as above; conditions: 312 h, post-emergence, 1,000 g/ha, evaluated after 13 days (100=total damage; 0=no damage), read-out: Percentage damage caused to weed species, SETFA
Protocol: as §1, with “8 days” for “one day”
as §3

Solanum nigrum (SOLNI) [12] = experiment: as above; conditions: 312 h, post-emergence, 1,000 g/ha, evaluated after 13 days (100=total damage; 0=no damage), read-out: Percentage damage caused to weed species, SOLNI
Protocol: as §1, with “8 days” for “one day”
as §3

`COC(=O)c1nc(C2CC2)nc(N[C@H](C)c2ccc3ccccc3c2)c1Cl` [4-185 (R), (R)-5-Chloro-2-cyclopropyl-6-methoxycarbonyl-4-[1-(naphtha-2-yl)ethylamino]-pyrimidine] gave a pest or weed control at 1000 g/ha [1] of 0%, a pest or weed control at 1000 g/ha [2] of 0% and a pest or weed control at 1000 g/ha [3] of 0%. For the same compound, the pest or weed control at 1000 g/ha [4] was 70%, the pest or weed control at 1000 g/ha (Setaria faberi (SETFA) [5]) was 0% and the pest or weed control at 1000 g/ha (Solanum nigrum (SOLNI) [6]) was 0%. It also gave a pest or weed control at 1000 g/ha [7] of 0%, a pest or weed control at 1000 g/ha [8] of 80% and a pest or weed control at 1000 g/ha [9] of 0%. It also gave a pest or weed control at 1000 g/ha [10] of 70%, a pest or weed control at 1000 g/ha (Setaria faberi (SETFA) [11]) of 0% and a pest or weed control at 1000 g/ha (Solanum nigrum (SOLNI) [12]) of 40%.

Compound `COC(=O)c1nc(C2CC2)nc(N[C@@H](CO)c2ccccc2)c1Cl` [4-203 (R), 5-Chloro-2-cyclopropyl-4-[(1R)-2-hydroxy-1-phenyl-ethylamino]-6-methoxycarbonyl-pyrimidine] has a pest or weed control at 1000 g/ha [1] of 20%, a pest or weed control at 1000 g/ha [2] of 90% and a pest or weed control at 1000 g/ha [3] of 20%. It also gave a pest or weed control at 1000 g/ha [4] of 100%, a pest or weed control at 1000 g/ha (Setaria faberi (SETFA) [5]) of 30% and a pest or weed control at 1000 g/ha (Solanum nigrum (SOLNI) [6]) of 80%. It also gave a pest or weed control at 1000 g/ha [7] of 20%, a pest or weed control at 1000 g/ha [8] of 100% and a pest or weed control at 1000 g/ha [9] of 30%. For the same compound, the pest or weed control at 1000 g/ha [10] was 50%, the pest or weed control at 1000 g/ha (Setaria faberi (SETFA) [11]) was 40% and the pest or weed control at 1000 g/ha (Solanum nigrum (SOLNI) [12]) was 80%.

For `COC(=O)c1nc(C2CC2)nc(N[C@H](CO)c2ccccc2)c1Cl` [4-203 (S), 5-Chloro-2-cyclopropyl-4-[(1S)-2-hydroxy-1-phenyl-ethylamino]-6-methoxycarbonyl-pyrimidine], the pest or weed control at 1000 g/ha [1] was 20%, the pest or weed control at 1000 g/ha [2] was 70% and the pest or weed control at 1000 g/ha [3] was 20%. The pest or weed control at 1000 g/ha [4] was 80%, the pest or weed control at 1000 g/ha (Setaria faberi (SETFA) [5]) was 40% and the pest or weed control at 1000 g/ha (Solanum nigrum (SOLNI) [6]) was 80%. It also gave a pest or weed control at 1000 g/ha [7] of 30%, a pest or weed control at 1000 g/ha [8] of 100% and a pest or weed control at 1000 g/ha [9] of 30%. It also gave a pest or weed control at 1000 g/ha [10] of 70%, a pest or weed control at 1000 g/ha (Setaria faberi (SETFA) [11]) of 50% and a pest or weed control at 1000 g/ha (Solanum nigrum (SOLNI) [12]) of 80%.

`COC(=O)c1nc(C2CC2)nc(N[C@@H](C)[C@H](O)c2ccccc2)c1Cl` [4-270 (1S,2R), 5-Chloro-2-cyclopropyl-4-[(1S, 2R)-2-hydroxy-1-methyl-2-phenyl-ethylamino]-6-methoxycarbonyl-pyrimidine] showed a pest or weed control at 1000 g/ha [1] of 20%, a pest or weed control at 1000 g/ha [2] of 70% and a pest or weed control at 1000 g/ha [3] of 20%. For the same compound, the pest or weed control at 1000 g/ha [4] was 100%, the pest or weed control at 1000 g/ha (Setaria faberi (SETFA) [5]) was 30% and the pest or weed control at 1000 g/ha (Solanum nigrum (SOLNI) [6]) was 80%. It also gave a pest or weed control at 1000 g/ha [7] of 40%, a pest or weed control at 1000 g/ha [8] of 100% and a pest or weed control at 1000 g/ha [9] of 30%. It also gave a pest or weed control at 1000 g/ha [10] of 100%, a pest or weed control at 1000 g/ha (Setaria faberi (SETFA) [11]) of 80% and a pest or weed control at 1000 g/ha (Solanum nigrum (SOLNI) [12]) of 100%.

Compound `COC(=O)c1nc(C2CC2)nc(N[C@H](C)[C@@H](O)c2ccccc2)c1Cl` [4-270 (erythro), 5-Chloro-2-cyclopropyl-4-(erythro-2-hydroxy-1-methyl-2-phenyl-ethylamino)-6-methoxycarbonyl-pyrimidine] has a pest or weed control at 1000 g/ha [1] of 30%, a pest or weed control at 1000 g/ha [2] of 80% and a pest or weed control at 1000 g/ha [3] of 30%. For the same compound, the pest or weed control at 1000 g/ha [4] was 100%, the pest or weed control at 1000 g/ha (Setaria faberi (SETFA) [5]) was 30% and the pest or weed control at 1000 g/ha (Solanum nigrum (SOLNI) [6]) was 80%. The pest or weed control at 1000 g/ha [7] was 30%, the pest or weed control at 1000 g/ha [8] was 100% and the pest or weed control at 1000 g/ha [9] was 60%. It also gave a pest or weed control at 1000 g/ha [10] of 100%, a pest or weed control at 1000 g/ha (Setaria faberi (SETFA) [11]) of 80% and a pest or weed control at 1000 g/ha (Solanum nigrum (SOLNI) [12]) of 80%.
